# In patent publication US12595262B2, “PRMT5 inhibitors” (MERCK SHARP & DOHME LLC, priority 2019, dated 2026):
# Columns and labels:
# [1] = biological target: T1, PRMT5 (Homo sapiens, UniProt O14744); test: PRMT5 Cell Target Engagement (TE) Assay; type: cell-based; conditions: MCF-7 cells, treated for 3 days; symmetrically dimethylated (SDMA) nuclear proteins by high content imaging
# T1 construct: endogenous in cells; host or cells: MCF-7
# Text: PRMT5 Cell Target Engagement (TE) Assay
# The PRMT5 TE assay is a biomarker assay for identifying compounds that inhibit symmetric dimethylation of arginine (SDMA) of PRMT5 substrates. The following substrates have been reported for PRMT5: histone H2A and H4 R3, Histone H3 R2, Histone H3 R8, spliceosome Sm proteins, ribosomal protein RPS10, p53, FEN1, nucleoplasmin, nucleolin, EGFR and EBNA. The assay focuses on detecting symmetrically dimethylated nuclear proteins using high content imaging technology. Detection of the expression of symmetrically dimethylated nuclear proteins is through a mixture of primary rabbit monoclonal antibodies to SDMA (CST 13222), which in turn recognized by an Alexafluor 488 dye-conjugated anti-rabbit IgG secondary antibody. The IN Cell Analyzer 2200 or Opera-Phenix measures nuclear Alexafluor 488 fluorescent dye intensity that is directly related to the level of expression of symmetrically dimethylated nuclear proteins at the single cell level. Nuclear AF488 dye intensities are compared to the mean value for DMSO treated cells (MIN) to report percent of inhibition for each compound-treated well.
# In this assay, the cell potency (EC50) of each compound was determined from a ten point (1:3 serial dilution; top compound concentration of 10000 nM) titration curve using the following outlined procedure. Each well of a BD falcon collagen coated black/clear bottom 384-well plate was seeded with 4000 MCF-7 cells in 30 μl media and allowed to attach for 5 h. Media is ATCC-formulated Eagle's Minimum Essential Medium, Catalog No. 30-2003. To make the complete growth medium, the following components were added to the base medium: 0.01 mg/mL human recombinant insulin; fetal bovine serum to a final concentration of 10%. Additional 30 µl of media containing 2× compounds were added to each well. Cells were treated for 3 days in 37° C. CO2 incubator. On day 3, cells were fixed with Cytofix, permeabilized with 0.4% Triton-X-100/Cytofix, and washed with D-PBS without Ca/Mg. Cells were blocked with Licor Odessey blocking reagent for 1 h at room temperature, followed by incubation with anti-SDMA (1:1000) antibody at 4° C. overnight. 1° antibody was removed, followed by three washings with DPBS without Ca/Mg and 0.05% Tween20. Hoechst (5 μg/mL), Cell Mask deep stain (1:2000) and Alexa488-conjugated goat anti-rabbit IgG (2 μg/mL) was added for 1 h at room temperature. A final washing step (three washes) was performed before sealing plate for imaging on In Cell Analyzer 2200 or Opera-Phenix. Images from analyzer were uploaded to Columbus (at WP or BOS) for image analysis. IC50 values were determined by 4 parameters robust fit of percent fluorescence units vs. (Log10) compound concentrations.
# [2] = biological target: T2, PRMT5-MEP50 enzyme complex (Homo sapiens, UniProt O14744); test: PRMT5-MEP50 Enzyme Methylation Assay; type: biochemical; conditions: recombinant full-length PRMT5-MEP50 1.0 nM, 75 nM biotinylated H4R3(Me1) peptide, 15 μM SAM; 60 minutes pre-incubation, 150 minutes at 37° C.
# T2 construct: 1.25 nM of Full-length (FL)-PRMT5-MEP50 enzyme complex; made in house; host or cells: baculovirus-transfected Sf21 cells
# T2 sequence (O14744 whole entry): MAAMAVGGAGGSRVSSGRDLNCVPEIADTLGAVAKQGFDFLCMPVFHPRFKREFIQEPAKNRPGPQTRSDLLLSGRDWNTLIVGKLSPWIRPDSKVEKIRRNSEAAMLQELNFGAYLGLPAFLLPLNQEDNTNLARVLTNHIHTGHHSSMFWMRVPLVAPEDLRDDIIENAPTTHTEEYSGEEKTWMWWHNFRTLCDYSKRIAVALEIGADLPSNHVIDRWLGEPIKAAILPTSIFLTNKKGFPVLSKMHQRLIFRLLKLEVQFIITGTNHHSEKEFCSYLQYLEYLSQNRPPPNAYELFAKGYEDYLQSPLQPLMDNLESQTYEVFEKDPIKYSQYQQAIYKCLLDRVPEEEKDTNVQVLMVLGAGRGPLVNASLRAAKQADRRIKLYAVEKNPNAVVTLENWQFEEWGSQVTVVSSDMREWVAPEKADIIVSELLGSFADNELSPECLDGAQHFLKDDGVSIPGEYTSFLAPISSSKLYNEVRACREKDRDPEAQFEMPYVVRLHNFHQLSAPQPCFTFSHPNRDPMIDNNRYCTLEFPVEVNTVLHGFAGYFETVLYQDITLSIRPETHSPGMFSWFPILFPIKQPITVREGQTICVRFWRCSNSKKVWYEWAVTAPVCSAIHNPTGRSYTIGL
# T2 sequence (Q9BQA1 whole entry partner): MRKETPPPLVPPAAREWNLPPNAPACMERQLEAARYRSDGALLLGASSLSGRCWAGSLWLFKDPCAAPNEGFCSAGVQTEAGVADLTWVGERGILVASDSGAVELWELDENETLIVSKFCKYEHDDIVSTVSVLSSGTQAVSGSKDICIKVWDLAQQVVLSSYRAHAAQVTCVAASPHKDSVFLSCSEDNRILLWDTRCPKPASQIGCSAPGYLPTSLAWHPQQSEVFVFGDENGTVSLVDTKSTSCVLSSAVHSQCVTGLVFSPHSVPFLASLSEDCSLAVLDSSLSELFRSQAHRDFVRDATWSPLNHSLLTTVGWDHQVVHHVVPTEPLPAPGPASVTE
# Experimental: PRMT5-MEP50 Enzyme Methylation Assay
# PRMT5-MEP50 biochemical assay is a direct measurement of the methylation activity of the enzyme complex on a short peptide substrate derived from the N-terminus of H4 histone. Methylation experiment was performed with recombinant PRMT5-MEP50 protein complex. The assessment of inhibitory effect of small molecules was measured by the effectiveness of the compounds to inhibit this reaction (EC50).
# In this assay, the potency (EC50) of each compound was determined from a twenty-point (1:2 serial dilution; top compound concentration of 100000 nM) titration curve using the following outlined procedure. To each well of a white ProxiPlus 384 well-plate, 100 nL of compound (1% DMSO in final assay volume of 10 μL) was dispensed, followed by the addition of 8 μL of 1× assay buffer (50 mM Bicine pH 8.0, 1 mM DTT, 0.004% Tween20, 0.01% BSA) containing 1.25 nM of Full-length (FL)-PRMT5-MEP50 enzyme complex (recombinant proteins from baculovirus-transfected Sf21 cells: FL-PRMT5; MW=[…] and FL-MEP50; MW=38614) and 1 μL of 150 μM S-(5′-Adenosyl)-L-Methionine Chloride (SAM). Plates were sealed and placed in a 37° C. humidified chamber for a 60 minutes pre-incubation with compound. Subsequently, each reaction was initiated by the addition of 1 μL 1× assay buffer containing 750 nM biotinylated H4R3(Me1) peptide. The final reaction in each well of 10 μL consists of 1.0 nM PRMT5-MEP50, 75 nM biotinylated-peptide, and 15 μM SAM. Methylation reactions were allowed to proceed for 150 minutes in a sealed plate at 37° C. Reactions were immediately quenched by the addition of 1 μL of 5% formic acid. Plates were then frozen and shipped to SAMDITM Tech Inc. to determine the percent conversion from H4R3(Me1) to H4R3(Me2). Dose-response curves were generated by plotting percent effect (% product conversion; Y-axis) vs. Log10 compound concentrations (X-axis). EC50 values were determined by non-linear regression according to models for sigmoidal (4 parameters) dose-response curves.
# T1 sequence (O14744 whole entry): as the sequence (O14744 whole entry) above
# T1 sequence (Q9BQA1 whole entry partner): as the sequence (Q9BQA1 whole entry partner) above
EC50 [1] [nM],EC50 [2] [nM],SMILES
2,0.9,"[2H]C1([2H])c2ccccc2CCN1[C@H]1CCN(C(=O)c2cc(NC3CCN(C(C)=O)CC3)ncc2F)C[C@@H]1O [Example 1b, 1-(4-((4-((3S,4S)-4-(3,4-dihydroisoquinolin-2(1H)-yl-1,1-d2)-3-hydroxypiperidine-1-carbonyl)-5-fluoropyridin-2-yl)amino)piperidin-1-yl)ethan-1-one]"
165,,"[2H]C1([2H])c2ccccc2CCN1[C@@H]1CCN(C(=O)c2cc(NC3CCN(C(C)=O)CC3)ncc2F)C[C@H]1O [Example 1c, 1-(4-((4-((3R,4R)-4-(3,4-dihydroisoquinolin-2(1H)-yl-1,1-d2)-3-hydroxypiperidine-1-carbonyl)-5-fluoropyridin-2-yl)amino)piperidin-1-yl)ethan-1-one]"

# The next lines start with the molecule.
SMILES,EC50 [1] [nM],EC50 [2] [nM]
"CC(=O)N1CCC(Nc2cc(C(=O)N3CC[C@H](N4CCc5ccccc5C4)[C@@H](O)C3)c(F)cn2)CC1 [Example 1, 1-{4-[(4-{[(3S,4S)-4-(3,4-dihydroisoquinolin-2(1H)-yl)-3-hydroxypiperidin-1-yl]carbonyl}-5-fluoropyridin-2-yl)amino]piperidin-1-yl}ethanone]",6.9,0.9
"O=C(c1cn2cc(C3CC3(F)F)cnc2n1)N1CC[C@H](N2CCc3ccccc3C2)[C@@H](O)C1 (stereo partly drawn) [Example 2, (6-(2,2-difluorocyclopropyl)imidazo[1,2-a]pyrimidin-2-yl)((3S,4S)-4-(3,4-dihydroisoquinolin-2(1H)-yl)-3-hydroxypiperidin-1-yl)methanone]",4.7,1.6
"O=C(c1cn2cc(C3CC3)cnc2n1)N1CC[C@H](N2CCc3ccccc3C2)[C@@H](O)C1 [Example 3, (6-cyclopropylimidazo[1,2-a]pyrimidin-2-yl)((3S,4S)-4-(3,4-dihydroisoquinolin-2(1H)-yl)-3-hydroxypiperidin-1-yl)methanone]",6.8,1.3
"CCc1nc2nc(C(=O)N3CC[C@H](N4CCc5ccccc5C4)[C@@H](O)C3)cn2cc1Br [Example 4, (6-bromo-7-ethylimidazo[1,2-a]pyrimidin-2-yl)((3S,4S)-4-(3,4-dihydroisoquinolin-2(1H)-yl)-3-hydroxypiperidin-1-yl)methanone]",15,1.5
